In patent US20040175378A1, “Selected antibody compositions and methods for binding to aminophospholipids” (Board of Regents, The University of Texas System, priority 2002, published 2004):

Columns and labels:
[1] = system: anionic phospholipids on vascular endothelium; assay: Localization of 9D2 and annexin V in tumor bearing mice, indirect immunohistochemistry; type: in vivo; settings: 50 μg antibody or 100 μg biotinylated annexin V i.v., 60 min
Protocol: To detect externally-positioned phospholipids, methods were performed essentially as previously described (Example V; Ran et al., 1998). Tumor-bearing SCID mice were injected intravenously with either 50 μg of 9D2 or biotinylated 9D2 antibody or 100 μg of biotinylated annexin V. Sixty min later mice were sacrificed and their blood circulation was exsanguinated and perfused with heparinized saline as previously described (Burrows et al., 1992). All major organs and tumor were harvested and snap-frozen for preparation of cryosections.
Sections were blocked with PBS containing 10% serum. To prevent loss of phospholipids during slide processing, detergents and organic solvents were omitted from blocking and washing buffers. Rat IgM was detected using goat anti rat IgM (μ specific)-HRP conjugate followed by development with carbazole or DAB (Fries et al., 1993). Biotinylated reagents were detected by streptavidin conjugated to HRP.
Tumor sections derived from mice injected with saline or rat IgM of irrelevant specificity served as negative controls. […] No signal was detected under these conditions. The number of positive vessels per high power field was determined at magnification of ×100. At least 10 fields per section were examined and the average percentage of positive vessels was calculated. […]
Structures with localized 9D2 antibody or annexin V were identified as blood vessels by morphological appearance on DAB-stained sections and by co-incident staining with the pan-endothelial cell marker, MECA 32 on serial sections of frozen tissues. Quantification on DAB-stained sections was done by counting vessels stained by MECA 32, 9D2 or annexin V in serial sections of a tumor. […] At least 10 random fields per section (0.317 mm^2/field) were scored in blinded fashion by two independent observers. The mean numbers and standard errors of vessels stained by 9D2, annexin V or MECA 32 were calculated. The mean number of 9D2 or annexin V-positive vessels determined in each tumor type group was compared to the mean number of MECA 32-positive vessels in the same tumor group. […]

[2] = ELISA binding to anionic phospholipids in 5 mM EDTA (Ca2+ requirement)
Protocol: The specificity of the 9D2 antibody binding was validated by using control rat IgM of irrelevant specificity (Pharmingen, San Diego, Calif.). The specificity of annexin V binding to phospholipids, which is Ca^2+-dependent, was determined by diluting the reagent in the DPBS containing 5 mM EDTA. Additional negative controls consisted of washing the plates with the binding buffer containing 0.2% of a detergent Tween 20. This treatment extracts lipids, thus removing the phospholipid that was absorbed to plastic. Neither 9D2 antibody nor annexin V bound to detergent-washed plates.

[3] = Phospholipid specificity ELISA; type: binding; settings: phospholipid-coated plates
Protocol: The specificity of the antibodies was determined by ELISA using plates coated with the following phospholipids: PS, phosphatidylserine; PE, phosphatidylethanolamine; PI, phosphatidylinositol; PA, phosphatidic acid; PG, phosphatidylglycerol; PC, phosphatidylcholine; CL, cardiolipin; and SM, sphingomyelin.

[4] = system: blood vessels of L540 Hodgkin tumors; assay: Annexin V inhibition of coaguligand-induced thrombosis in vivo; parameters: species or system SCID mice; settings: 100 μg Annexin V 2 hours before 40 μg anti-VCAM-1•tTF
Protocol: The ability of Annexin V to inhibit coaguligand-induced thrombosis in vivo was examined in L540 Hodgkin-bearing SCID mice. Tumors were grown in mice and two mice per group (tumor size 0.5 cm in diameter) were injected intravenously via the tail vein with one of the following reagents: a) saline; b) 100 μg of Annexin V; c) 40 μg of anti-VCAM-1•tTF; d) 100 μg of Annexin V followed 2 hours later by 40 μg of anti-VCAM-1•tTF.
Four hours after the last injection mice were anesthetized and perfused with heparinized saline. Tumors were removed, fixed with 4% formalin, paraffin-embedded and stained with hematoxylene-eosin. The number of thrombosed and non-thrombosed blood vessels was counted and the percentage of thrombosis was calculated.

[5] = system: vascular endothelium of MDA-MB-231 breast tumors; assay: Double staining of orthotopic MDA-MB-231 tumors after i.v. biotinylated 9D2 or annexin V; type: in vivo, mice; settings: 1 h
Protocol: In further studies, mice bearing MDA-MB-231 tumors (0.3-0.7 cm^3 in volume) were injected intravenously with 50 μg of biotinylated 9D2, control IgM or annexin V (six mice per group). Biotinylated reagents were first incubated with streptavidin-Cy3 conjugate, washed in PBS, then incubated with MECA 32 antibody followed by FITC-tagged anti-rat IgG secondary antibody. Single images, taken with appropriate filters for Cy3 (red) and FITC (green) fluorescence respectively, were captured by digital camera and transferred to a computer. […] The same method was used to analyze tumors from mice injected with control rat IgM or saline. The percentage of vessels with localized 9D2 or annexin V was calculated as follows: mean number of yellow vessels per field divided by mean number of green (total) vessels multiplied by 100.
Double staining studies were also performed in which mice bearing orthotopic MDA-MB-231 breast tumors were injected intravenously with biotinylated 9D2 antibody, biotinylated control IgM or biotinylated annexin V. One hour later, the mice were exsanguinated, and their tumors were removed and frozen sections were cut. The tumor sections were then stained with Cy3-conjugated streptavidin to detect the biotinylated proteins and with FITC-conjugated MECA32 to detect vascular endothelium. […]

Factor X = assay: Chromogenic assay of coaguligand-induced Factor Xa formation on bEnd.3 cells; type: cell-based; settings: Annexin V 10 μg per ml; cells preincubated with anti-VCAM-1•tTF
Protocol: The ability of Annexin V to affect Factor Xa formation induced by coaguligand was determined by a chromogenic assay. IL-1α-stimulated bEnd.3 cells were incubated with anti-VCAM-•tTF and permeabilized by saponin. Annexin V was added at concentrations ranging from 0.1 to 10 μg/ml and cells were incubated for 30 min. before addition of diluted Proplex T. The amount of Factor Xa generated in the presence or absence of Annexin V was determined. Each treatment was performed in duplicate and repeated at least twice.
Annexin V added to permeabilized cells preincubated with anti-VCAM-1•tTF inhibited the formation of factor Xa in a dose-dependent manner. In the absence of Annexin V, cell-bound coaguligand produced 95 ng of factor Xa per 10,000 cells per 60 min. The addition of increasing amounts of Annexin V (in the μg per ml range) inhibited factor Xa production. At 10 μg per ml, Annexin V inhibited factor Xa production by 58%.

Substance: Annexin V: natural ligand that binds to anionic phospholipids; commercial biotinylated or recombinant human annexin V
- positive vessels of MECA 32-stained vessels per field, mean ± SE ([1]; B16 tumor): 21.3 ± 6.6%
- positive vessels of MECA 32-stained vessels per field, mean ± SE ([1]; L540cy tumor): 16.7 ± 3.9%
- positive vessels of MECA 32-stained vessels per field, mean ± SE ([1]; MDA-MB-231 tumor): 45.3 ± 5.6%
- binding to anionic phospholipids in the presence of 5 mM EDTA [2]: abolished in the presence of 5 mM EDTA
- Relative Strength of Reactivity on ELISA [3]: PS = PE = PI = PA > CL > PG
- coaguligand-induced intravascular thrombosis and changes in tumor cell morphology [4]: completely abolished
- MECA 32 positive vessels that bound the reagent [5]: About 40%
- inhibition of factor Xa production (Factor X): 58%
